Reference: patent US5458876A, “Control of microbial growth with lantibiotic/lysozyme formulations” (priority 1990, dated 1995)
Ends that are not written are not given here.

Columns and labels:
L. monocytogenes Scott A = test: Survival of cells in citric acid buffer with subtilin and/or lysozyme; format: cell-based, Listeria monocytogenes; settings: for Surviving Cells After 1 Hour at 25° C.: 10 mM citric acid buffer pH 5.5, untreated 7.5; for Surviving Cells After 1 Hour at 25° C. / log10 reduction: subtilin 100 μ/ml and/or lysozyme 500 ppm; for log10 reduction / effect on the L. monocytogenes cells: 1 hour at 25° C., pH 5.5; for effect on the L. monocytogenes cells: alone, subtilin 100 μ/ml or lysozyme 500 ppm
Description: A culture of L. monocytogenes Scott A was grown overnight in BHI broth and diluted 1:100 in 10 mM citric acid buffer (pH 5.5). This preparation, 100 μl, was added to 900 μl of citric acid buffer containing subtilin, lysozyme or both. The subtilin used in this experiment was prepared by the pure culture fermentation of Bacillus subtillus ATCC 6633 as described by Banerjee and Hansen in J. Biol. Chem. 1988 263 (19): 9508-9514.

Staphlococcus aureus = test: Minimal inhibitory concentration in BHI broth; format: cell-based; settings: lysozyme alone, 37° C.
Description: The synergy of nisin and lysozyme is not limited to the control of L. monocytogenes. The minimal inhibitory concentration (MIC) of nisin was lowered by the addition of lysozyme for the control of other gram positive bacteria. For example, a culture of Staphlococcus aureus was grown overnight in BHI broth and subsequently diluted into fresh BHI broth with various concentrations of nisin, lysozyme or a combination of nisin and lysozyme. […] Accordingly, one can use less nisin to provide an equivalent level of control by the addition of a synergistic amount of lysozyme.

[1] = test system: Listeria monocytogenes Scott A; test: Disk inhibition of growth on BHI agar overlay plates; format: cell-based; settings: 10 μl on disks, overnight 37° C.; nisin below 50 IU/ml; lysozyme up to and including 125 μg/ml; blend 50 IU/ml nisin and 50 μg/ml lysozyme
Description: A culture of Listeria monocytogenes Scott A was grown overnight in Brain Heart Infusion broth (BHI, Difco Laboratories, Inc.). Overlay plates were prepared using 25 ml of BHI agar overlayed with 4 ml BHI agar containing 10 μl of the overnight culture. Sterile antibiotic sensitivity disks were blotted with 10 μl of nisin, lysozyme or nisin/lysozyme blends at various concentrations; placed on the surface of the overlay plates and incubated overnight at 37° C.

[2] = test system: S. typhimurium (ATCC 14028); test: Survival of cells in citric acid buffer with nisin and/or lysozyme; format: cell-based, Salmonella typhimurium
Description: A culture of S. typhimurium (ATCC 14028) was grown overnight on nutrient broth, diluted in 10 mM citric acid buffer (pH 3.5) and added to citric acid buffer containing nisin, lysozyme or a combination thereof.

L. monocytogenes = test: Growth of L. monocytogenes in inoculated raw pork sausage (surface response model); format: cell-based, Listeria monocytogenes; settings: alone, 0-500 IU/gm nisin or 0-500 ppm lysozyme; 3 days at 5° C.
Description: L. monocytogenes can grow at 5° C. and poses a threat to some processed meats. Its control can include reduction in the rate of growth, bacteriostatic effects, and most desirably, bacteriocidal effects.
Raw sausage was inoculated with L. monocytogenes from a BHI overnight culture; various amounts of nisin and/or lysozyme were incorporated into the sausage. The treated sausage was held for either 3 or 21 days at 5° C. whereupon viable L. monocytogenes were enumerated. A surface response model was constructed over a range of 0-500 IU/gm nisin and 0-500 ppm lysozyme. The surface response model from the 3 day data are set out in the following FIG. 3. […] Similar synergies are seen at other levels of nisin and lysozyme.

[3] = test system: Listeria monocytogenes, Scott A; test: Lysis of washed cells at various pH levels (loss of absorbance at 540 nm); format: cell-based; settings: 100 IU/ml nisin alone or 10 μg/ml lysozyme alone; 37°
Description: A culture of Listeria monocytogenes, Scott A, was grown overnight in BHI broth and harvested by centrifugation. The harvested cells were washed with 0.067M Potassium phosphate buffer (pH 6.6) and resuspended in 0.067M potassium phosphate buffer at various pH levels to a final absorbance of about 1.0 at 540 nm as determined in a Bausch & Lomb spectronic 20. Lysis of the bacteria is accompanied by a loss in absorbance at 540 nm. Nisin and lysozyme were added to these solutions to final concentrations of 100 IU/ml nisin and 10 μg/ml lysozyme and the solutions were placed in a 37° water bath whereupon the change in adsorption at 540 nm was monitored.

Substance	Surviving Cells After 1 Hour at 25° C. (L. monocytogenes Scott A)	log10 reduction (L. monocytogenes Scott A) [log10]	effect on the L. monocytogenes cells (L. monocytogenes Scott A)	effect on subsequent growth of the bacteria (Staphlococcus aureus)	inhibition of bacterial growth (zone of inhibition around disks) [1]	Surviving Cells After 1 Hour at 37° C. ([2]; 10 mM citric acid buffer pH 3.5, nisin 1000 IU/ml and/or lysozyme 500 μg/ml, untreated 7.18)	log10 reduction ([2]; 1 hour at 37° C., pH 3.5, nisin 1000 IU/ml and/or lysozyme 500 μg/ml) [log10]	effect against S. typhimurium ([2]; lysozyme 500 μg/ml alone, 1 hour at 37° C., pH 3.5)	control of L. monocytogenes in raw sausage (L. monocytogenes)	pH of maximum lysis [3]
subtilin (WKSESLCTPGCVTGALQTCFLQTLTCNCKISK; cysteine pairing not given here; also: lantibiotic thioether and dehydro residues, places not given here; UniProt P10946 25-56, looked up) [lantibiotic prepared by pure culture fermentation of Bacillus subtillus ATCC 6633, reference compound]	7.2 log10 colony forming units/ml	0.3	little effect	–	–	–	–	–	–	–
lysozyme	7.4 log10 colony forming units/ml	0.1	little effect	did not affect	nor was inhibition observed	7.08 log10 colony forming units/ml	0.10	ineffective	ineffective	6.0-6.5 pH
